This is an account of results in US20140275063A1, “NEW ENZYME INHIBITOR COMPOUNDS” (PROXIMAGEN LIMITED, priority 2011, published 2014).

Structures can show the parent of a compound that is named as a salt. Some results are limits rather than exact numbers.

This experiment concerns the target T1, human SSAO (Homo sapiens, UniProt Q16853).
T1 construct: made in house
T1 sequence (Q16853 29-763 limits assumed): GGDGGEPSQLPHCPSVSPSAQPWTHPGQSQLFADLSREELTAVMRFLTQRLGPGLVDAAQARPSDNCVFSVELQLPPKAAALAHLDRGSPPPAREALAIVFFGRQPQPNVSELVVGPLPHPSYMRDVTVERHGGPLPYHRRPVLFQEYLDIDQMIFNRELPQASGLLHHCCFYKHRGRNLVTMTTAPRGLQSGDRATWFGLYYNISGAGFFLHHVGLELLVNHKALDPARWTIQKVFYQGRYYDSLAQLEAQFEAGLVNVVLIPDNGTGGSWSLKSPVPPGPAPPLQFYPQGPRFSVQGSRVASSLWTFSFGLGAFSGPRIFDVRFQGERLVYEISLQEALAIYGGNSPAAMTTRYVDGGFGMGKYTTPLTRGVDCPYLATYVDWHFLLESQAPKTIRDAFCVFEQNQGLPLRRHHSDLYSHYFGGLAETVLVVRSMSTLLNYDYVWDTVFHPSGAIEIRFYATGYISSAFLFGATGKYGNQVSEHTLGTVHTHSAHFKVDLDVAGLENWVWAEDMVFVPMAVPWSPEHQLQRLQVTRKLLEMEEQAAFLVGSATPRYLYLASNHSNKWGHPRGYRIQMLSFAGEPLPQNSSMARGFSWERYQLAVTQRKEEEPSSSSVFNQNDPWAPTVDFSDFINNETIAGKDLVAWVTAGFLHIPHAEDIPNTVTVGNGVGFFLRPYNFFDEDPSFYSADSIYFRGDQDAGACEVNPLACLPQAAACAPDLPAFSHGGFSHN
Nature of the experiment: SSAO inhibitory activity (HRP-coupled hydrogen peroxide detection or 14C-benzaldehyde detection, benzylamine substrate). It counts as biochemical. The note with it: purified recombinantly expressed human SSAO, benzylamine as substrate, RT. The method, then: All primary assays were performed at RT. with purified recombinantly expressed human SSAO. Enzyme was prepared essentially as described in Öhman et al. (Protein Expression and Purification 46 (2006) 321-331). In addition, secondary- and selectivity assays were performed using SSAO prepared from various tissues or purified rat recombinant SSAO. The enzyme activity was assayed with benzylamine as substrate by measuring either benzaldehyde production, using ^14C-labeled substrate, or by utilizing the production of hydrogen peroxide in a horseradish peroxidase (HRP) coupled reaction. Briefly, test compounds were dissolved in dimethyl sulfoxide (DMSO) to a concentration of 10 mM. Dose-response measurements were assayed by either creating 1:10 serial dilutions in DMSO to produce a 7 point curve or by making 1:3 serial dilutions in DMSO to produce 11 point curves. The top concentrations were adjusted depending on the potency of the compounds and subsequent dilution in reaction buffer yielded a final DMSO concentration ≦2%.
In a horseradish peroxidase (HRP) coupled reaction, hydrogen peroxide oxidation of 10-acetyl-3,7-dihydroxyphenoxazine produced resorufin, which is a highly fluorescent compound (Zhout and Panchuk-Voloshina. Analytical Biochemistry 253 (1997) 169-174; Amplex® Red Hydrogen Peroxideperoxidase Assay kit, Invitrogen A22188). Enzyme and compounds in 50 mM sodium phosphate, pH 7.4 were set to pre-incubate in flat-bottomed microtiter plates for approximately 15 minutes before initiating the reaction by addition of a mixture of HRP, benzylamine and Amplex reagent. Benzylamine concentration was fixed at a concentration corresponding to the Michaelis constant, determined using standard procedures. Fluorescence intensity was then measured at several time points during 1-2 hours, exciting at 544 nm and reading the emission at 590 nm. For the human SSAO assay final concentrations of the reagents in the assay wells were: SSAO enzyme 1 μg/ml, benzylamine 100 μM, Amplex reagent 20 μM, HRP 0.1 U/mL and varying concentrations of test compound. The inhibition was measured as % decrease of the signal compared to a control without inhibitor (only diluted DMSO). The background signal from a sample containing no SSAO enzyme was subtracted from all data points. Data was fitted to a four parameter logistic model and IC50 values were calculated using the Graph Pad Prism 4 or XLfit 4 programs.
SSAO activity was assayed using 14C-labeled benzylamine and analysed by measuring radioactive benzaldehyde. In a white 96-well optiplate (Packard), 20 μL of diluted test compound was pre-incubated at RT. with 20 μL SSAO enzyme for approximately 15 minutes with continuous agitation. All dilutions were made with PBS. The reaction was initiated by adding 20 μL of the benzylamine substrate solution containing [7-14C] Benzylamine hydrochloride (CFA589, GE Healthcare). The plate was incubated for 1 hour as above after which the reaction was stopped by acidification (10 μL 1 M HCl). Then 90 μL Micro Scint-E solution (Perkin-Elmer) was added to each well and the plate was continuously mixed for 15 minutes. Phase separation occurred instantly and activity was read in a Topcount scintillation counter (Perkin-Elmer). In the final reaction well, the human recombinant SSAO concentration was 10 μg/ml. In order to optimize sensitivity, the substrate concentration was decreased as compared to the HRP coupled assay in order to get a higher fraction of radioactive product. In the human SSAO assay, benzylamine concentration was 40 μM (0.2 μCi/mL). Data was analysed as above.
In the case of `O=C(NCCCN1CCOCC1)N1CCC(c2cn(-c3ccc(Cl)cc3)c3cnccc23)CC1` [Compound 26, 4-(1-(4-Chlorophenyl)-1H-pyrrolo[2,3-c]pyridin-3-yl]-N-[3-(morpholin-4-yl)propyl] piperidine-1-carboxamide], the concentration for half-maximal inhibition (IC50) is < 100 nM.

`Clc1ccc(-n2nc(N3CCOCC3CN3CCOCC3)c3ccncc32)cc1` (centres unmarked) [Compound 41, 4-[1-(4-Chlorophenyl)-1H-pyrazolo[3,4-c]pyridin-3-yl]-3-(morpholin-4-ylmethyl)morpholine]: the IC50 was 100 to 500 nM. Then `Clc1ccc(-n2nc(N3CCC(CN4CCNCC4)CC3)c3ccncc32)cc1` [Compound 49, 1-({1-[1-(4-Chlorophenyl)-1H-pyrazolo[3,4-c]pyridin-3-yl]piperidin-4-yl}methyl)piperazine], with 100 to 500 nM; and `Clc1ccc(-n2cc(C3CCN(CC4CCNCC4)CC3)c3ccncc32)cc1` [Compound 3, 4-[1-(4-Chlorophenyl)-1H-pyrrolo[2,3-c]pyridin-3-yl]-1-(piperidin-4-ylmethyl) piperidine], with 100 to 500 nM. Then `O=C(NCC1CCNCC1)N1CCC(c2cn(-c3ccc(Cl)cc3)c3cnccc23)CC1` [Compound 6, 4-[1-(4-Chlorophenyl)-1H-pyrrolo[2,3-c]pyridin-3-yl]-N-(piperidin-4-ylmethyl)piperidine-1-carboxamide], with < 100 nM; and `Clc1ccc(-n2cc(C3CCN(C4CCNC4)CC3)c3ccncc32)cc1` (centres unmarked) [Compound 1, 4-[1-(4-Chlorophenyl)-1H-pyrrolo[2,3-c]pyridin-3-yl]-1-(pyrrolidin-3-yl)piperidine], with < 100 nM.

Consider `Cc1ccc(-n2nc(N3CCOC(CNC(=O)NC4CC4)C3)c3ccncc32)cc1` (centres unmarked) [Compound 31, 3-Cyclopropyl-1-({4-[1-(4-methylphenyl)-1H-pyrazolo[3,4-c]pyridin-3-yl]morpholin-2-yl}methyl)urea], for which the 50% inhibitory concentration (IC50) was < 100 nM. Then `CC(C)N1CCC(CN(C)C(=O)N2CCC(c3cn(-c4ccc(Cl)cc4)c4cnccc34)CC2)CC1` [Compound 15, 4-[1-(4-Chlorophenyl)-1H-pyrrolo[2,3-c]pyridin-3-yl]-N-methyl-N-{[1-(propan-2-yl)piperidin-4-yl]methyl} piperidine-1-carboxamide], with < 100 nM. In the case of `CC(C)N1CCC(NC(=O)N2CCC(c3cn(-c4ccc(Cl)cc4)c4cnccc34)CC2)CC1` [Compound 9, 4-[1-(4-Chlorophenyl)-1H-pyrrolo[2,3-c]pyridin-3-yl]-N-[1-(propan-2-yl)piperidin-4-yl] piperidine-1-carboxamide] it was < 100 nM. In the case of `CNC(=O)NCC1CN(c2nn(-c3ccc(Cl)cc3)c3cnccc23)CCO1` (centres unmarked) [Compound 60, 1-({4-[1-(4-Chlorophenyl)-1H-pyrazolo[3,4-c]pyridin-3-yl]morpholin-2-yl}methyl)-3-methylurea] it was < 100 nM.

As to `NCCNC(=O)CC1COCCN1c1nn(-c2ccc(Cl)cc2)c2cnccc12` (centres unmarked) [Compound 54, N-(2-Aminoethyl)-2-{4-[1-(4-chlorophenyl)-1H-pyrazolo[3,4-c]pyridin-3-yl]morpholin-3-yl}acetamide dihydrochloride], the IC50 is < 100 nM. `O=C(O)CC1COCCN1c1nn(-c2ccc(Cl)cc2)c2cnccc12` (centres unmarked) [Compound 53, 2-{4-[1-(4-Chlorophenyl)-1H-pyrazolo[3,4-c]pyridin-3-yl]morpholin-3-yl}acetic acid hydrochloride]: the IC50 was in the range of 500 to 2500 nM.

In the case of `NCCCOC(=O)N1CCN(CC2CN(c3nn(-c4ccc(Cl)cc4)c4cnccc34)CCO2)CC1` (centres unmarked) [Compound 37, 3-Aminopropyl 4-({4-[1-(4-chlorophenyl)-1H-pyrazolo[3,4-c]pyridin-3-yl]morpholin-2-yl}methyl)piperazine-1-carboxylate trihydrochloride], the IC50 is 100 to 500 nM. Then `Clc1ccc(-n2nc(N3CCC(CNCC4CCNCC4)CC3)c3ccncc32)cc1` [Compound 50, ({1-[1-(4-Chlorophenyl)-1H-pyrazolo[3,4-c]pyridin-3-yl]piperidin-4-yl}methyl)(piperidin-4-ylmethyl)amine], with 100 to 500 nM; and `CCNC(=O)N1CCN(CC2CN(c3nn(-c4ccc(Cl)cc4)c4cnccc34)CCO2)CC1` (centres unmarked) [Compound 39, 4-({4-[1-(4-Chlorophenyl)-1H-pyrazolo[3,4-c]pyridin-3-yl]morpholin-2-yl}methyl)-N-ethylpiperazine-1-carboxamide], with 100 to 500 nM.

For `O=C(NC1(c2nn[nH]n2)CCC1)N1CCC(c2cn(-c3ccc(Cl)cc3)c3cnccc23)CC1` [Compound 63, 4-[1-(4-Chlorophenyl)-1H-pyrrolo[2,3-c]pyridin-3-yl]-N-[1-(2H-1,2,3,4-tetrazol-5-yl)cyclobutyl]piperidine-1-carboxamide; trifluoroacetic acid], the half-inhibitory concentration (IC50) is < 100 nM. Then `O=C(CC1CCNCC1)N1CCC(c2cn(-c3ccc(Cl)cc3)c3cnccc23)CC1` [Compound 4, 1-{4-[1-(4-Chlorophenyl)-1H-pyrrolo[2,3-c]pyridin-3-yl]piperidin-1-yl}-2-(piperidin-4-yl)ethan-1-one], with < 100 nM; and `Clc1ccc(-n2nc(N3CCOC(CN4CCNCC4)C3)c3ccncc32)cc1` (centres unmarked) [Compound 36, 4-[1-(4-Chlorophenyl)-1H-pyrazolo[3,4-c]pyridin-3-yl]-2-(piperazin-1-ylmethyl) morpholine trihydrochloride], with < 100 nM; and `NCCCNC(=O)N1CCN(CC2CN(c3nn(-c4ccc(Cl)cc4)c4cnccc34)CCO2)CC1` (centres unmarked) [Compound 38, N-(3-Aminopropyl)-4-({4-[1-(4-chlorophenyl)-1H-pyrazolo[3,4-c]pyridin-3-yl]morpholin-2-yl}methyl)piperazine-1-carboxamide tri hydrochloride], with 100 to 500 nM. In the case of `Clc1ccc(-n2nc(NCCN3CCNCC3)c3ccncc32)cc1` [Compound 45, 1-(4-Chlorophenyl)-N-[2-(piperazin-1-yl)ethyl]-1H-pyrazolo[3,4-c]pyridin-3-amine] it was 100 to 500 nM; in that of `O=C(N1CCC(c2cn(-c3ccc(Cl)cc3)c3cnccc23)CC1)N1CCN(C2CC2)CC1` [Compound 16, 1-({4-[1-(4-Chlorophenyl)-1H-pyrrolo[2,3-c]pyridin-3-yl]piperidin-1-yl}carbonyl)-4-cyclopropyl-piperazine], < 100 nM; in that of `CN1CCC(CNC(=O)N2CCC(c3cn(-c4ccc(Cl)cc4)c4cnccc34)CC2)CC1` [Compound 11, 4-[1-(4-Chlorophenyl)-1H-pyrrolo[2,3-c]pyridin-3-yl]-N-[(1-methylpiperidin-4-yl)methyl] piperidine-1-carboxamide], < 100 nM. Turning to `CN1CCC(CN(C)C(=O)N2CCC(c3cn(-c4ccc(Cl)cc4)c4cnccc34)CC2)CC1` [Compound 13, 4-[1-(4-Chlorophenyl)-1H-pyrrolo[2,3-c]pyridin-3-yl]-N-methyl-N-[(1-methylpiperidin-4-yl)methyl] piperidine-1-carboxamide; formic acid], the half-maximal inhibitory concentration (IC50) is < 100 nM.
